Details in all cases: stereoisomer not certain
Data set [1] in a line: HILIC, Merck SeQuant ZIC-HILIC, 150 × 2.1 mm, 5 µm, 0.75 mL/min, estimated dead time 0.44 min; A: water + 0.1% acetic acid + 10 mM ammonium acetate, pH 4; B: 5% water + 95% acetonitrile + 0.1% acetic acid + 10 mM ammonium acetate, pH 4; gradient (min/%B) 0/95 5/95 20/57 25/57 30/95 40/95.
A short description of data set [2]: RP, Waters CORTECS T3, 100 × 2.1 mm, 2.7 µm, 0.3 mL/min, estimated dead time 0.73 min; A: water + 0.1% formic acid, pH 3; B: methanol + 0.1% formic acid, pH 3; gradient (min/%B) 0/0 5/0 25/100 30/100 30.1/0 35/0.
A short description of data set [3]: RP, Waters ACQUITY UPLC BEH C18, 100 × 2.1 mm, 1.7 µm, 0.1 mL/min, estimated dead time 2.2 min; A: water + 0.1% formic acid, pH 3; B: methanol + 0.1% formic acid, pH 3; gradient (min/%B) 0/5 5/5 25/95 25.1/100 35/100 35.1/5 45/5.
Data set [4] in a line: RP, Waters CORTECS T3, 100 × 2.1 mm, 2.7 µm, 0.2 mL/min, estimated dead time 1.1 min; A: water + 0.1% formic acid, pH 3; B: methanol + 0.1% formic acid, pH 3; gradient (min/%B) 0/0 1/0 6/5 30/100 35/100 35.1/0 40/0.
Data set [5] is described as follows: RP, Waters ACQUITY UPLC BEH C18, 100 × 2.1 mm, 1.7 µm, 0.2 mL/min, estimated dead time 1.1 min; A: water + 0.1% formic acid, pH 3; B: methanol + 0.1% formic acid, pH 3; gradient (min/%B) 0/5 5/5 25/100 30/100 30.1/5 35/5.
Data set [6] is described as follows: RP, Waters CORTECS T3, 100 × 2.1 mm, 2.7 µm, 0.2 mL/min, estimated dead time 1.1 min; A: water + 0.1% formic acid, pH 3; B: methanol + 0.1% formic acid, pH 3; gradient (min/%B) 0/5 5/5 25/95 25.1/100 35/100 35.1/5 45/5.
A short description of data set [7]: HILIC, Merck SeQuant ZIC-HILIC, 150 × 2.1 mm, 5 µm, 0.75 mL/min, estimated dead time 0.44 min; A: water + 10 mM ammonium formate, pH 6; B: 5% water + 95% acetonitrile + 10 mM ammonium formate, pH 6; gradient (min/%B) 0/95 5/95 20/57 25/57 30/95 40/95.
A short description of data set [8]: RP, Waters CORTECS T3, 100 × 2.1 mm, 2.7 µm, 0.3 mL/min, estimated dead time 0.73 min; A: water + 0.1% formic acid, pH 3; B: methanol + 0.1% formic acid, pH 3; gradient (min/%B) 0/0 1/0 6/5 30/100 35/100 35.1/0 40/0.
Data set [9] is described as follows: HILIC, Waters XBridge BEH Amide, 100 × 2.1 mm, 2.5 µm, 0.5 mL/min, estimated dead time 0.44 min; A: water + 0.1% acetic acid + 10 mM ammonium acetate, pH 4; B: 5% water + 95% acetonitrile + 0.1% acetic acid + 10 mM ammonium acetate, pH 4; gradient (min/%B) 0/95 5/95 20/57 25/57 30/95 40/95.
A short description of data set [10]: RP, Waters ACQUITY UPLC BEH C18, 100 × 2.1 mm, 1.7 µm, 0.2 mL/min, estimated dead time 1.1 min; A: water + 0.025% formic acid + 20 mM ammonium acetate + 0.055% ammonium hydroxide, pH 7; B: methanol; gradient (min/%B) 0/5 5/5 25/100 30/100 30.1/5 35/5.
A short description of data set [11]: RP, Waters CORTECS T3, 100 × 2.1 mm, 2.7 µm, 0.25 mL/min, estimated dead time 0.88 min; A: water + 0.1% formic acid, pH 3; B: methanol + 0.1% formic acid, pH 3; gradient (min/%B) 0/5 5/5 25/95 25.1/100 35/100 35.1/5 45/5.
Data set [12] in a line: RP, Waters CORTECS T3, 100 × 2.1 mm, 2.7 µm, 0.15 mL/min, estimated dead time 1.5 min; A: water + 0.1% formic acid, pH 3; B: methanol + 0.1% formic acid, pH 3; gradient (min/%B) 0/5 5/5 25/95 25.1/100 35/100 35.1/5 45/5.
Data set [13] can be described thus: RP, Waters CORTECS T3, 100 × 2.1 mm, 2.7 µm, 0.2 mL/min, estimated dead time 1.1 min; A: water + 0.045% formic acid + 0.11% ammonium hydroxide, pH 7; B: methanol; gradient (min/%B) 0/5 5/5 25/95 25.1/100 35/100 35.1/5 45/5.
Data set [14] can be described thus: RP, Waters ACQUITY UPLC BEH C18, 100 × 2.1 mm, 1.7 µm, 0.1 mL/min, estimated dead time 2.2 min; A: water + 0.045% formic acid + 0.11% ammonium hydroxide, pH 7; B: methanol; gradient (min/%B) 0/5 5/5 25/95 25.1/100 35/100 35.1/5 45/5.
The nature of data set [15]: RP, Thermo Scientific Hypercarb, 150 × 2.1 mm, 5 µm, 0.1 mL/min, estimated dead time 3.3 min; A: water + 0.1% formic acid, pH 3; B: methanol + 0.1% formic acid, pH 3; gradient (min/%B) 0/5 5/5 20/100 35/100 35.1/5 45/5.
A short description of data set [16]: RP, Waters ACQUITY UPLC BEH C18, 100 × 2.1 mm, 1.7 µm, 0.1 mL/min, estimated dead time 2.2 min; A: water + 0.1% formic acid, pH 3; B: methanol + 0.1% formic acid, pH 3; gradient (min/%B) 0/5 5/5 25/100 30/100 30.1/5 35/5.
A short description of data set [17]: RP, Waters CORTECS T3, 100 × 2.1 mm, 2.7 µm, 0.3 mL/min, estimated dead time 0.73 min; A: water + 0.1% formic acid, pH 3; B: methanol + 0.1% formic acid, pH 3; gradient (min/%B) 0/5 5/5 25/100 30/100 30.1/5 35/5.
Data set [18] can be described thus: RP, Waters CORTECS T3, 100 × 2.1 mm, 2.7 µm, 0.1 mL/min, estimated dead time 2.2 min; A: water + 0.1% formic acid, pH 3; B: methanol + 0.1% formic acid, pH 3; gradient (min/%B) 0/5 5/5 25/95 25.1/100 35/100 35.1/5 45/5.

These results are taken from the RepoRT retention time repository (doi:10.1016/j.jchromb.2020.122105).

As for `O=C(O)C1(O)CC(O)C(O)C(O)C1` (configuration not stated) [QUINATE], the LC retention time in data set [1] was 12.2 min; in data set [2], 0.89 min; in data set [3] it was 2.67 min; in [4] it was 1.35 min; in data set [5], 1.38 min; in [6] it was 2.64 min. In addition, the LC retention time in [7] is 12.3 min.

Take `O=C(O)CCCCCCCCCCCO` [OMEGA-HYDROXYDODECANOIC ACID]: the LC retention time in [8] is 22.4 min; in data set [9] it was 1.1 min; in data set [10], 16.3 min; in data set [11], 20.4 min; in data set [12], 22.2 min.

On to `O=c1ccn(C2OC(CO)C(O)C2O)c(=O)[nH]1` (configuration not stated) [URIDINE], for which the LC retention time in data set [1] is 4.54 min; in data set [9] it was 3.95 min; in data set [12], 1.83 min.

With `Nc1ccn(C2OC(COP(=O)(O)OP(=O)(O)O)C(O)C2O)c(=O)n1` (configuration not stated) [CYTIDINE 5'-DIPHOSPHATE], the LC retention time was 0.89 min in data set [2], 1.35 min in [4] and 1.98 min in data set [12].

Regarding `CC(CCC(=O)O)C1CCC2C3C(O)CC4CC(O)CCC4(C)C3CC(O)C12C` (configuration not stated) [CHOLATE], the LC retention time is 21.9 min in data set [2]; 25.4 min in data set [8]; 19.6 min in [10]; 22.9 min in [11]; 22.9 min in data set [5]; 24.7 min in data set [12]. In addition, the LC retention time in [6] is 29.8 min.

On to `CCCCCCCCCCCCCCCC(=O)OCC(COP(=O)(O)OCCN)OC(=O)CCCCCCCCCCCCCCC` (racemic) [1,2-DIPALMITOYL-RAC-GLYCERO-3-PHOSPHOETHANOLAMINE], for which the LC retention time was 6.05 min in [9], 28.7 min in [13], 36.9 min in data set [14] and 7.77 min in [7].

`CCOC(OCC)C(O)COP(=O)(O)O` (configuration not stated) [GLYCERALDEHYDE 3-PHOSPHATE DIETHYL ACETAL]: the LC retention time in data set [8] is 6.25 min; in data set [10], 1.41 min; in [4], 8.23 min; in [12] it was 7.38 min; in data set [6], 12.2 min.

As for `NC(C(=O)O)C(O)C(O)C(O)CO` (configuration not stated) [GLUCOSAMINATE], the LC retention time in data set [1] was 14.2 min; in data set [9], 14.7 min; in data set [6] it was 2.45 min; in [15], 4.77 min; in data set [7], 14.3 min.

With `O=c1[nH]cnc2nc[nH]c12` [HYPOXANTHINE], the LC retention time was 3.97 min in data set [9]; 2.8 min in [16]; 1.33 min in data set [17]; 1.38 min in [10]; 2.72 min in data set [18]; 3.94 min in data set [7].

In the case of `Nc1ccn(C2CC(O)C(COP(=O)(O)O)O2)c(=O)n1` (configuration not stated) [2'-DEOXYCYTIDINE 5'-MONOPHOSPHATE], the LC retention time in [2] was 0.89 min; in data set [8] it was 0.92 min; in data set [3], 2.67 min; in data set [4], 1.35 min; in data set [5], 1.38 min; in data set [6], 2.67 min. Also, the LC retention time in [7] is 14.5 min.

For the molecule `N[C@@H](CS(=O)(=O)O)C(=O)O` [L-CYSTEIC ACID], the LC retention time is 13.4 min in data set [1]; 13.4 min in data set [9]; 2.49 min in [6]; 19.4 min in [15]; 13.4 min in data set [7].
